In brackets after ≈: the same amount, converted by molar mass. Read-outs that look alike come from different tables or passages of the source.
What was measured:
[1] = test system: RIV9 hiPSC-derived cardiomyocytes; test: hiPSC-EST cardiac contractile assay (count of contracting cardiomyocyte clusters); format: cell-based, human; conditions: for hiPSC ID50: day 25, 50% inhibition of functional (contracting) cardiomyocytes vs control; for doses with reduced contractile activity / incidence: Figure 3
Experimental: The hiPSC cell line RIV9 was obtained from the Stem Cell Core at the University of California, Riverside. hiPSCs were seeded on Matrigel (Corning, Glendale, AZ, USA)-coated tissue culture plates and maintained in a pluripotent state in mTeSR® medium (Stem Cell Technologies, Seattle, WA, USA). Cells were cultured under a humidified atmosphere of 5% CO2 at 37 °C and passaged for maintenance or to seed for experiments approximately every 5 days as previously described.
After cells reached 70% confluency (designated day 0), the medium was changed to control differentiation medium supplemented with 0.06 mg/mL ascorbic acid (Sigma-Aldrich, St. Louis, MO, USA) to induce cardiac differentiation. Control differentiation medium was comprised of Dulbecco’s modified Eagle’s medium (DMEM with 4.5 g/L glucose, L-glutamine and sodium pyruvate; Corning) supplemented with 18% FBS (PAA), 0.8% penicillin/streptomycin (10,000 units/10,000 units, Gibco, ThermoFisher Scientific, Grand Island, NY, USA), 0.12% non-essential amino acids (NEAA; Gibco), and 0.1 mM β-mercaptoethanol (Gibco). Cultures were cultured in differentiation media for 25 days, starting from day 0.
(§1) 5-flurorouracil (5-FU), all-trans retinoic acid (atRA), and penicillin G (PenG) were selected from a subset of chemicals used in the original EST validation study. 5-FU and atRA were selected as positive test compounds due to their established embryotoxic potential while PenG was used as a negative control. All chemicals were purchased from Sigma. Stock solutions were prepared in DMSO and filtered through a 0.2 micron Acrodisc® PSF Syringe Filter (Pall Corporation, Port Washington, NY, USA), aliquoted into sterile microcentrifuge tubes and stored at −20 °C until use. Test chemicals were serially diluted to final concentrations in differentiation media. Cardiogenic cultures were treated with designated chemicals (or solvent only) through day 25 of differentiation and hFF cultures were treated with each compound for a 25 day duration period. Compounds were replenished with each medium change.
A University of Kentucky smoking machine was used to produce smoke extract solutions from commercially available conventional Marlboro Red 100 brand cigarettes as previously described. The smoking machine took a 2.2 s puff of mainstream (MS) smoke every minute. Smoke solution concentrations were made in puff equivalents (PE), which are the number of cigarette puffs dissolved in 1 mL of medium. MS smoke solutions were produced by pulling 30 puffs of MS smoke through 10 mL of DMEM. Resulting 3 PE smoke extracts were filtered through a 0.2 micron Acrodisc® PSF Syringe Filter (Pall Corporation, Port Washington, NY, USA), aliquoted into sterile microcentrifuge tubes, and stored at −80 °C until use. Serial dilutions were performed in differentiation medium to reach desired final exposure concentrations. Cardiogenic cultures were treated with smoke solutions through 25 days of differentiation. Smoke solutions were replenished with each medium change.
A 10% (w/v) Camel Snus extract was prepared as previously described. Ten grams of Snus was added to 85 mL of DMEM and allowed to incubate at 37 °C for 2 h. This initial extract solution was centrifuged for 10 min at 4500× g. Supernatant from the first round of centrifugation was then centrifuged again at 13,000× g for 1 h. The resulting supernatant was collected and pH adjusted to 7.4. 15 mL of FBS was added to the pH-adjusted Snus extract to produce a 10% stock solution of Snus tobacco extract (STE). The stock solution was then sterile-filtered with a 0.22 μm vacuum filter system. STE was aliquoted into sterile microcentrifuge tubes and stored at −80 °C until use. Serial dilutions were performed in differentiation medium to reach desired final exposure concentrations. Cardiogenic cultures were treated with STE through 25 days of differentiation. STE was replenished with each medium change. […]

[2] = test system: human foreskin fibroblasts (hFF); test: hFF viability screen (MTT); format: cell-based; conditions: for IC50: Homo sapiens, Fibroblast; for concentrations with reductions in hFF cell viability: Figure 4B
Experimental: Human foreskin fibroblasts (hFF) were gifted from Dr. Derrick Rancourt (University of Calgary). hFFs were seeded onto 0.1% gelatin-coated tissue culture plates and maintained in Dulbecco’s modification of Eagle’s medium (DMEM with 4.5 g/L glucose, L-glutamine and sodium pyruvate; Corning cellgro) supplemented with 10% FBS (Atlanta Biologicals, Flower Branch, GA, USA) and 0.5% penicillin/streptomycin (10,000 units/10,000 units, Gibco).
as §1
Cardiomyocyte survival following concurrent exposure to each compound was evaluated by 3-[4,5-dimethylthiazol-2-yl]-2,5-diphenylterazolium bromide (MTT) assay from three independent differentiations each carried out in technical quintuplicate as previously described. On day 25 of differentiation, cells were incubated with MTT (5 mg/mL) for 2 h at 37 °C. MTT supernatant was removed and replaced with a desorb solution of 0.7% SDS in 2-propanol. The absorbance of the solution was measured at 570 nm in an iMark™ microplate reader (Bio-Rad) with 655 nm as a reference wavelength. Here, mitochondrial dehydrogenase activity on the MTT in solution is directly proportional to a blue-purple product that is detected at 570 nm.
Half-maximal inhibitory compound doses of differentiation (ID50) and cytotoxicity (IC50) were determined from concentration-response curves using GraphPad Prism.

[3] = test system: mESCs; design: method as in PMID 14761682; conditions: mESC-EST, cell viability; previously obtained in the authors' lab; cited from earlier work
[4] = 600 h, MTT, 25 day treatment, read-out: hFF IC50
[5] = fibroblast row of the hiPSC-EST in Table 1 (values equal hFF IC50 of Table 2), read-out: hiPSC 3T3 IC50

| SMILES | concentrations that negatively impacted the formation of contractile structures ([1]; by day 20, Figure 2) | hiPSC ID50 [1] [ng/mL] | effect on hFF cell viability [2] | IC50 [2, 4] [µg/mL] | IC50 [2, 5] [µg/mL] | concentrations with reductions in hFF cell viability ([2]; MTT) [ng/mL] | mESCs IC50 [3] [ng/mL] | increase in contractile cluster incidence ([1]; 1 × 10^−8 μg/mL) [fold] | concentrations at which cells failed to form contractile clusters ([1]; Figure 2) | doses with reduced contractile activity / incidence [1] | hFF IC50 ([2]; MTT, 25 day treatment) [µg/mL] | concentration with significant cell death in hFF ([2]; highest tested concentration) [ng/mL] | effect on formation of contractile structures [1] |
| --- | --- | --- | --- | --- | --- | --- | --- | --- | --- | --- | --- | --- | --- |
| O=c1[nH]cc(F)c(=O)[nH]1 [5-Fluorouracil, 5-fluorouracil] | above 1 × 10^−6 μg/mL | 0.00229 | dose-dependent reduction in cell viability | 0.000808 (≈ 0.00621 µM) | 0.00081 (≈ 0.00623 µM) | > 0.1 | 22 | – | – | – | – | – | – |
| CC1=C(/C=C/C(C)=C/C=C/C(C)=C/C(=O)O)C(C)(C)CCC1 [All-Trans Retinoic Acid, all-trans retinoic acid] | – | 0.000933 | dose-dependent reduction in cell viability | 0.0125 (≈ 0.0415 µM) | 0.0125 (≈ 0.0416 µM) | > 10 | 0.09 | ~2 | above 1 × 10^−3 μg/mL | above 1 × 10^−8 μg/mL | 0.0125 | 1000 | – |
| CC1(C)S[C@@H]2[C@H](NC(=O)Cc3ccccc3)C(=O)N2[C@H]1C(=O)O [Penicillin G, penicillin G] | – | 739900 | – | ~1430 (≈ 4290 µM) | 1430 (≈ 4290 µM) | ≥ 800000 | 800000 | – | – | > 700 µg/mL | – | – | did not inhibit the formation of contractile structures |

— PMC8347148, “An Evaluation of Human Induced Pluripotent Stem Cells to Test for Cardiac Developmental Toxicity” (International Journal of Molecular Sciences, 2021)
